Results as given in patent publication US8937089B2, “Synergistic mixtures of anthranilamide invertebrate pest control agents” (priority 2004, dated 2015).

Columns and labels:
Assay in all cases: whole plant or invertebrate
Type in all cases: in vivo
[1] = system: potato leafhopper (Empoasca fabae Harris)
Method: (§1) Test compounds were formulated using a solution containing 10% acetone, 90% water and 300 ppm X-77® Spreader Lo-Foam Formula non-ionic surfactant containing alkylarylpolyoxyethylene, free fatty acids, glycols and 2-propanol (Loveland Industries, Inc.) to provide the desired concentration in ppm. Formulated test solutions were then applied in 1 mL volumes through a SUJ2 atomizer nozzle with 1/8 JJ custom body (Spraying Systems Co.) positioned 1.27 cm (0.5 inches) above the top of each test unit.
[…] White sand was added to the top of the soil, and one of the primary leaves was excised prior to application. Test compounds were formulated and sprayed with 3 replications as described for Test A. After spraying, the test units were allowed to dry for 1 hour before they were infested with 5 potato leafhoppers (18- to 21-day-old adults). A black, screened cap was placed on the top of each container. The test units were held for 6 days in a growth chamber at 19-21° C. and 50-70% relative humidity.

[2] = system: western flower thrip (Frankliniella occidentalis Pergande)
Method: as §1
For evaluating control of the western flower thrip (Frankliniella occidentalis Pergande) through contact and/or systemic means, each test unit consisted of a small open container with a 5- to 7-day-old bean (var. Soleil) plant inside.
Test solutions were formulated and sprayed with 3 replications as described for Test A. After spraying, the test units were allowed to dry for 1 hour, 22 to 27 adult thrips were added to each unit and then a black, screened cap was placed on top. The test units were held for 7 days at 25° C. and 45-55% relative humidity.

[3] = system: green peach aphid (Myzus persicae Sulzer); conditions: Green Peach Aphid; for mortality at 10 ppm: rate 10 ppm; for mortality at 100 ppm: rate 100 ppm; for mortality at 1000 ppm: rate 1000 ppm
Method: as §1
(§2) For evaluating control of green peach aphid (Myzus persicae Sulzer) through contact and/or systemic means, each test unit consisted of a small open container with a 12- to 15-day-old radish plant inside. This was pre-infested by placing on a leaf of the test plant 30 to 40 aphids on a piece of leaf excised from a culture plant (cut-leaf method). The larvae moved onto the test plant as the leaf piece desiccated. After pre-infestation, the soil of the test unit was covered with a layer of sand.
(§3) Test compounds were formulated and sprayed as described in Test A, replicated three times. After spraying of the formulated test compound, each test unit was allowed to dry for 1 hour and then a black, screened cap was placed on top. The test units were held for 6 days in a growth chamber at 19-21° C. and 50-70% relative humidity.

[4] = system: silverleaf whitefly (Bemisia argentifolii Bellows and Perring); conditions: Bemisia argentifolii, in Gossypium hirsutum, Table 2B, read-out: % mortality (obs); for mortality at 500 ppm: rate 500 ppm; for mortality at 1000 ppm: rate 1000 ppm
Source text: For evaluating control of silverleaf whitefly (Bemisia argentifolii Bellows and Perring) through contact and/or systemic means, each test unit consisted of a small open container with a 12- to 14-day-old cotton plant inside. This was pre-infested by placing test units into cages infested with adult whiteflies so that oviposition on the cotton leaves could occur. The adults were removed from the plants with an air-blast nozzle, and the test units were capped. The test units were then stored 2 to 3 days before spraying.
as §1
The results for all experimental compositions in this test were replicated three times. After spraying of the formulated test composition, each test unit was allowed to dry for 1 hour and the cap removed. The test units were held for 13 days in a growth chamber at 28° C. and 50-70% relative humidity.

[5] = system: corn planthopper (Peregrines maidis)
Method: as §1
For evaluating control of corn planthopper (Peregrines maidis) through contact and/or systemic means, each test unit consisted of a small open cylindrical container with a 3- to 4-day-old corn (maize) plant (spike) inside. White sand was added to the top of the soil prior to application. Test compounds were formulated and sprayed with 3 replications as described for Test A. After spraying, the test units were allowed to dry for 1 hour before they were post-infested with 10 to 20 corn planthoppers (18- to 20-day-old nymphs) by sprinkling them onto the sand with a salt shaker. A black, screened cap was placed on the top of each container. The test units were held for 6 days in a growth chamber at 19-21° C. and 50-70% relative humidity.

[6] = system: cotton melon aphid (Aphis gossypii Glover); conditions: for mortality at 1000 ppm: rate 1000 ppm
Method: as §1
as §2, with “cotton melon” for “green peach”, “(Aphis gossypii Glover)” for “(Myzus persicae Sulzer)”, “6-” for “12-”, “7-day-old cotton” for “15-day-old radish”
as §3, with “described for” for “described in”, “Test A. The applications were” for “Test A,”, “test compounds,” for “test compound,”

[7] = Frankliniella occidentalis, 168 h, rate 10 ppm, single compound, spray, 7 days, read-out: % mortality (obs)
[8] = Frankliniella occidentalis, 168 h, rate 100 ppm, single compound, spray, 7 days, read-out: % mortality (obs)
[9] = Frankliniella occidentalis, 168 h, rate 1000 ppm, single compound, spray, 7 days, read-out: % mortality (obs)
[10] = Myzus persicae, in Raphanus sativus, read-out: % mortality (obs)
[11] = Empoasca fabae, rate 10 ppm, alone, read-out: % mortality (obs)
[12] = Empoasca fabae, rate 100 ppm, alone, read-out: % mortality (obs)
[13] = Empoasca fabae, rate 1000 ppm, alone, read-out: % mortality (obs)
[14] = Corn Plant Hopper, rate 100 ppm, read-out: % mortality (obs)
[15] = Corn Plant Hopper, rate 1000 ppm, read-out: % mortality (obs)
[16] = Aphis gossypii, read-out: % mortality (obs)
[17] = rate 100 ppm, single compound, spray, 7 days

Compound: COC(C)(C)CCC[C@H](C)C/C=C/C(C)=C/C(=O)OC(C)C (racemic) [Methoprene]
- % mortality (obs) ([1]; in vivo): 0%

Compound: CC(C)N1C(=O)N(c2ccccc2)CS/C1=N\C(C)(C)C [Buprofezin]
- mortality at 10 ppm [2, 7]: 20%
- mortality at 100 ppm [2, 8]: 20%
- mortality at 1000 ppm [2, 9]: 30%
- mortality at 10 ppm [3, 10]: 63%
- mortality at 100 ppm [3, 10]: 63%
- mortality at 1000 ppm [3, 10]: 54%
- mortality at 300 ppm ([4]; rate 300 ppm): 75%
- mortality at 500 ppm [4]: 65%
- mortality at 1000 ppm [4]: 96%
- mortality at 10 ppm [1, 11]: 20%
- mortality at 100 ppm [1, 12]: 20%
- mortality at 1000 ppm [1, 13]: 0%
- mortality at 10 ppm ([5]; Corn Plant Hopper, rate 10 ppm, read-out: % mortality (obs)): 96%
- mortality at 100 ppm [5, 14]: 97%
- mortality at 1000 ppm [5, 15]: 98%
- mortality at 10 ppm ([6]; Aphis gossypii, rate 10 ppm, read-out: % mortality (obs)): 34%
- mortality at 100 ppm ([6]; Aphis gossypii, rate 100 ppm, read-out: % mortality (obs)): 30%
- mortality at 1000 ppm [6, 16]: 36%

Compound: CCOP(=S)(OCC)Oc1nc(Cl)c(Cl)cc1Cl [Chlorpyrifos]
- mortality at 10 ppm [2, 7]: 20%
- mortality at 100 ppm [2, 8]: 10%
- mortality at 1000 ppm [2, 9]: 10%
- mortality at 10 ppm [3, 10]: 5%
- mortality at 100 ppm [3, 10]: 18%
- mortality at 1000 ppm [3, 10]: 9%
- mortality at 500 ppm [4]: 0%
- mortality at 1000 ppm [4]: 0%
- mortality at 2000 ppm ([4]; rate 2000 ppm): 0%
- mortality at 10 ppm [1, 11]: 13%
- mortality at 100 ppm [1, 12]: 0%
- mortality at 1000 ppm [1, 13]: 7%
- mortality at 0.1 ppm ([5]; Corn Plant Hopper, rate 0.1 ppm, read-out: % mortality (obs)): 46%
- mortality at 0.2 ppm ([5]; Corn Plant Hopper, rate 0.2 ppm, read-out: % mortality (obs)): 24%
- mortality at 0.3 ppm ([5]; Corn Plant Hopper, rate 0.3 ppm, read-out: % mortality (obs)): 19%
- mortality at 1 ppm ([6]; Aphis gossypii, rate 1 ppm, read-out: % mortality (obs)): 26%
- mortality at 5 ppm ([6]; Aphis gossypii, rate 5 ppm, read-out: % mortality (obs)): 14%
- mortality at 50 ppm ([6]; Aphis gossypii, rate 50 ppm, read-out: % mortality (obs)): 13%

Compound: O=C(NC(=O)c1c(F)cccc1F)Nc1cc(Cl)c(OC(F)(F)C(F)F)c(Cl)c1 [Hexaflumuron]
- mortality at 100 ppm [3, 10]: 8%
- mortality at 1000 ppm [3, 10]: 6%
- mortality at 3000 ppm ([3]; Myzus persicae, in Raphanus sativus, rate 3000 ppm, read-out: % mortality (obs)): 13%
- mortality at 10 ppm ([4]; rate 10 ppm): 1%
- mortality at 60 ppm ([4]; rate 60 ppm): 0%
- mortality at 360 ppm ([4]; rate 360 ppm): 0%
- mortality at 100 ppm [1, 12]: 13%
- mortality at 1000 ppm [1, 13]: 13%
- mortality at 3000 ppm ([1]; Empoasca fabae, rate 3000 ppm, alone, read-out: % mortality (obs)): 27%
- mortality at 100 ppm [5, 14]: 6%
- mortality at 1000 ppm [5, 15]: 5%
- mortality at 3000 ppm ([5]; Corn Plant Hopper, rate 3000 ppm, read-out: % mortality (obs)): 4%
- mortality at 30 ppm ([6]; Aphis gossypii, rate 30 ppm, read-out: % mortality (obs)): 32%
- mortality at 1000 ppm [6, 16]: 30%
- mortality at 3000 ppm ([6]; Aphis gossypii, rate 3000 ppm, read-out: % mortality (obs)): 29%

Compound: O=C(NC(=O)c1c(F)cccc1F)Nc1cc(Cl)c(OC(F)(F)C(F)C(F)(F)F)cc1Cl (stereo not drawn) [Lufenuron]
- mortality at 10 ppm [2, 7]: 90%
- mortality at 100 ppm [2, 8]: 80%
- mortality at 500 ppm ([2]; Frankliniella occidentalis, 168 h, rate 500 ppm, single compound, spray, 7 days, read-out: % mortality (obs)): 80%
- mortality at 50 ppm ([3]; Myzus persicae, in Raphanus sativus, rate 50 ppm, read-out: % mortality (obs)): 34%
- mortality at 250 ppm ([3]; Myzus persicae, in Raphanus sativus, rate 250 ppm, read-out: % mortality (obs)): 15%
- mortality at 1000 ppm [3, 10]: 28%
- mortality at 0.08 ppm ([1]; Empoasca fabae, rate 0.08 ppm, alone, read-out: % mortality (obs)): 40%
- mortality at 0.4 ppm ([1]; Empoasca fabae, rate 0.4 ppm, alone, read-out: % mortality (obs)): 53%
- mortality at 2 ppm ([1]; Empoasca fabae, rate 2 ppm, alone, read-out: % mortality (obs)): 40%
- mortality at 0.08 ppm ([5]; Corn Plant Hopper, rate 0.08 ppm, read-out: % mortality (obs)): 9%
- mortality at 0.4 ppm ([5]; Corn Plant Hopper, rate 0.4 ppm, read-out: % mortality (obs)): 7%
- mortality at 2 ppm ([5]; Corn Plant Hopper, rate 2 ppm, read-out: % mortality (obs)): 7%
- mortality at 0.08 ppm ([6]; Aphis gossypii, rate 0.08 ppm, read-out: % mortality (obs)): 28%
- mortality at 0.4 ppm ([6]; Aphis gossypii, rate 0.4 ppm, read-out: % mortality (obs)): 39%
- mortality at 2 ppm ([6]; Aphis gossypii, rate 2 ppm, read-out: % mortality (obs)): 58%

Compound: Abamectin
- % mortality (obs) ([2]; rate 1 ppm, single compound, spray, 7 days): 100%
- % mortality (obs) ([2]; rate 10 ppm, single compound, spray, 7 days): 100%
- % mortality (obs) [2, 17]: 100%
- % mortality (obs) ([3]; rate 0.08 ppm): 47%
- % mortality (obs) ([3]; rate 0.4 ppm): 100%
- % mortality (obs) ([3]; rate 2 ppm): 100%
- % mortality (obs) ([1]; rate 10 ppm, alone): 47%
- % mortality (obs) ([1]; rate 100 ppm, alone): 100%
- % mortality (obs) ([1]; rate 1000 ppm, alone): 100%
- % mortality (obs) ([5]; Corn Plant Hopper, rate 1.6 ppm): 7%
- % mortality (obs) ([5]; Corn Plant Hopper, rate 8 ppm): 93%
- % mortality (obs) ([5]; Corn Plant Hopper, rate 40 ppm): 100%
- % mortality (obs) ([6]; rate 0.08 ppm): 35%
- % mortality (obs) ([6]; rate 0.4 ppm): 58%
- % mortality (obs) ([6]; rate 2 ppm): 100%

Compound: Clothianidin
- % mortality (obs) [2, 17]: 90%
- % mortality (obs) ([2]; rate 500 ppm, single compound, spray, 7 days): 100%
- % mortality (obs) ([2]; rate 1000 ppm, single compound, spray, 7 days): 100%
- % mortality (obs) ([3]; rate 0.08 ppm): 100%
- % mortality (obs) ([3]; rate 0.4 ppm): 100%
- % mortality (obs) ([3]; rate 2 ppm): 100%
- % mortality (obs) ([1]; rate 10 ppm, alone): 93%
- % mortality (obs) ([1]; rate 100 ppm, alone): 100%
- % mortality (obs) ([1]; rate 1000 ppm, alone): 100%
- % mortality (obs) ([5]; Corn Plant Hopper, rate 10 ppm): 100%
- % mortality (obs) ([5]; Corn Plant Hopper, rate 100 ppm): 100%
- % mortality (obs) ([5]; Corn Plant Hopper, rate 1000 ppm): 100%
- % mortality (obs) ([6]; rate 0.08 ppm): 75%
- % mortality (obs) ([6]; rate 0.4 ppm): 91%
- % mortality (obs) ([6]; rate 2 ppm): 99%

Compound: Dinotefuran
- % mortality (obs) ([2]; in vivo): 50%
- % mortality (obs) ([1]; in vivo): 7%
- % mortality (obs) ([5]; in vivo): 5%

Compound: Lambda-cyhalothrin
- % mortality (obs) ([2]; in vivo): 40%
- % mortality (obs) ([5]; in vivo): 7%
